Here are results for seven compounds from publication PMC8658806, “New Carbonic Anhydrase-II Inhibitors from Marine Macro Brown Alga Dictyopteris hoytii Supported by In Silico Studies” (Molecules, 2021).

Read-outs that look alike come from different tables or passages of the source.

For the experiment, the target named is T1, purified bovine erythrocyte CA-II (Bos taurus, UniProt P00921).
T1 construct: purified bovine erythrocyte CA-II; from tissue; host or cells: bovine erythrocytes
Description: Carbonic anhydrase II inhibition (4-nitrophenyl acetate hydrolysis, microplate). The note with it: for % Inhibition: preliminary screening, test concentration not given. Format: biochemical. The method, then: The total reaction volume of 200 µL including 20 µL of test compounds, isolated from Dictyopteris hoytii, and prepared in DMSO, followed by the addition of 140 µL of HEPES–tris buffer, 20 µL of purified bovine erythrocyte CA-II (0.1 mg/mL) prepared in buffer, and 20 µL of a solution of 4-nitrophenyl acetate. Then, 20 µL of the test compound was incubated with the enzyme carbonic anhydrase (EC 4.2.1.1) for 15 min in 96-well flat bottom plates. The rate of product formation was monitored with the addition of 20 µL of 4-NPA as substrate, prepared in methanol at the final concentration of 0.7 mM, at 25 °C for 30 min with regular intervals of 1 min, by using microplate readers (Bio-Rad, Molecular Devices, CA, USA). HEPES-tris was used as a buffer for the reaction at a final concentration of 20 mM at pH 7.4.

The mark [1] stands for this setting: Table 1 and text, unit given, NA = not active, read-out: IC50 ± SEM.

T1 sequence (P00921 whole entry): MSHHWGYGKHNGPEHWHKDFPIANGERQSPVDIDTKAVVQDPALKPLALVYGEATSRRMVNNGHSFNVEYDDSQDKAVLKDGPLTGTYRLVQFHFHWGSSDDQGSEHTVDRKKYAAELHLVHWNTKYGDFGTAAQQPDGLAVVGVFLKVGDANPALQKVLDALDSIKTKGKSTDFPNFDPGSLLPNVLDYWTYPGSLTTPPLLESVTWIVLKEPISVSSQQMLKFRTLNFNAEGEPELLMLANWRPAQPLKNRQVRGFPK

By IC50 is commonly meant the concentration at which inhibition is half-maximal. Broadly, the % Inhibition is the drop in the measured response relative to a control, in per cent. Higher therefore signals a strong effect. For the compound `O=Cc1ccccc1/C=C/C(=O)O` [Compound 1, (E)-3-(2-formylphenyl)acrylic acid], the “% Inhibition” value is recorded as 79.4%. For the same compound, the IC50 under setting [1] stood at 44.9 ± 1.1 µM.
For `COC(OC)c1ccc(/C=C/C(=O)O)cc1` [Compound 5, (E)-3-(4-(dimethoxymethyl)phenyl)acrylic acid], in that order: 93.9% and 17.7 ± 2.01 µM.
On to `C=CCCCCCCCCCCCCCCCC` [Compound 7, octadec-1-ene], for which the “% Inhibition” value came to 88.0%. The IC50 under setting [1] turned out to be 16.3 ± 0.31 µM.
The corresponding values for `O=Cc1ccc(C=O)cc1` [Compound 9, terephthalaldehyde] are 93.9% and 53.1 ± 1.2 µM.
Turning to `C/C=C(\CC[C@@H](C)[C@H]1CC[C@H]2[C@@H]3CC=C4C[C@@H](O)CC[C@]4(C)[C@H]3CC[C@]12C)C(C)C` [Compound 15, fucosterol], the IC50 came to 31.3 ± 1.34 µM and the “% Inhibition” value was 69.8%.
On to `CCCCCCCCCCCCCCCCCCC=CCCCCCCCC(=O)O` [Compound 19, n-octacos-9-enoic acid], for which the “% Inhibition” value amounted to 87.3%. Under setting [1], the IC50 came to 24.3 ± 1.38 µM.
With “ethyl methyl 2-bromobenzene 1,4-dioate [Compound 13]”, the “% Inhibition” value came out at 87.3%. Moreover, the 50% inhibitory concentration (IC50) under setting [1] is 39.5 ± 0.73 µM. The IC50 (Table 2 repeat of Table 1 values, read-out: IC50 ± S.E.M) was found to be 39.5 ± 0.73 µM.
